From patent US20160281050A1, “METHODS FOR TREATING A CULTURE OF HAEMATOCOCCUS PLUVIALIS FOR CONTAMINATION USING SALT AND HYDROGEN PEROXIDE” (HELIAE DEVELOPMENT LLC, priority 2015, published 2016)

How the values were obtained:
chytrids [1] = assay: % chytrid infection in flasks, salt treatment (Example 12); assay type: cell-based
Procedure: This test was done side by side in flasks (0.1 L) and in reactors located in a greenhouse operating in conditions: reactor volume of 230 L; Daily PAR of 20 mol m^−2 d^−1; pH (not measured); and paddlewheel speed of 21 RPM. […] The flask cultures were mixed by shaking at 140 rpm and received 300-400 μmol/m^2 s of photosynthetically active radiation (PAR) in 12 hour light cycles and constant supply of 2.5% CO2. The motility of the culture was monitored by visual observation under a microscope. […] Nine 230 L reactors were also seeded with culture from bioreactor #2410 on the same day as the flasks and brought to 2 ppt concentration of salt. Once motility of the cells was reduced to <10% (day 3 of culture for flasks and day 2 for 230 L reactors) the level of salt was elevated to a point between 4-18 ppt and compared to the culture in two reactors remaining at 2 ppt salt. Flasks and 230 L reactors were monitored for percentage of cell lysis via visual observation under a microscope, culture dry weight (biomass accumulation in g/L), and percentage of chytrid infection via visual observation under a microscope. Carotenoid production, a proxy for determining astaxanthin, was quantified every other day of culture in the 230 L reactors using the UV method.

[2] = test system: Haematococcus pluvialis (Strain 2); assay: % lysis and culture dry weight in flasks (Example 9); settings: for percent lysis: by day 5;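 on all read-outs here: flask cultures run in duplicate for each treatment, alongside duplicate untreated control flasks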
Source text: Culture samples of Haematococcus pluvialis (Strain 2) were collected on day 5 of the culture from open raceway bioreactor #2420 operating in conditions: reactor volume of 170,000 L; Daily PAR not measured; pH of 7.3; and paddlewheel speed of 70%). Culture samples were distributed into flasks for culturing, consisting of duplicate untreated controls and duplicate treatments. […] Samples were taken from the flask cultures every few days in order to quantify % lysis, % chytrid infection, and cell dry weight for a duration of about 11 days.

chytrids [3] = assay: % chytrid infection in flask cultures (Example 6); assay type: cell-based
Procedure: A series of experiments were conducted to evaluate the effectiveness of hydrogen peroxide alone and in combination with concentrations of salt as a treatment for controlling chytrid infections in Haematococcus pluvialis cultures. […] Bioreactor #2420 had just been inoculated with cells in the green swimmer stage into reddening conditions that comprised of culture medium comprising a 1 ppt concentration of sodium chloride (NaCl). The flask experiment consisted of duplicate untreated controls and duplicate treatments.
The flask cultures contained Haematococcus pluvialis (Strain 1) cells in both the green swimmer stage and early red cyst stage.
The collected samples were inoculated in the green swimmer stage in growth conditions [i.e., in the absence of sodium chloride (NaCl)].
The culture samples were inoculated in the green swimmer stage in growth conditions [i.e., in less than 1 ppt of sodium chloride (NaCl)].
The flask cultures were then diluted 1:3 into reddening media comprising 1 ppt NaCl or 2 ppt NaCl (33.3 mL and 66.6 mL culture media).

Compound: [Cl-].[Na+] [NaCl, sodium chloride]
- % Chytrid infection in Flasks (chytrids [1]; 2 ppt, 9 d): 82 ± 17%
- % Chytrid infection in Flasks (chytrids [1]; 2 ppt, 11 d): 96 ± 4%
- % Chytrid infection in Flasks (chytrids [1]; 4 ppt, 9 d): 22 ± 20%
- % Chytrid infection in Flasks (chytrids [1]; 4 ppt, 11 d): 85 ± 16%
- % Chytrid infection in Flasks (chytrids [1]; 5 ppt, 9 d): 18 ± 16%
- % Chytrid infection in Flasks (chytrids [1]; 5 ppt, 11 d): 53 ± 9%
- % Chytrid infection in Flasks (chytrids [1]; 6 ppt, 9 d): 8 ± 11%
- % Chytrid infection in Flasks (chytrids [1]; 6 ppt, 11 d): 19 ± 27%
- % Chytrid infection in Flasks (chytrids [1]; 7 ppt, 9 d): 3 ± 5%
- % Chytrid infection in Flasks (chytrids [1]; 7 ppt, 11 d): 0 ± 0%
- % Chytrid infection in Flasks (chytrids [1]; 8 ppt, 9 d): 1 ± 1%
- % Chytrid infection in Flasks (chytrids [1]; 8 ppt, 11 d): 2 ± 2%
- % Chytrid infection in Flasks (chytrids [1]; 9 ppt, 9 d): 1 ± 1%
- % Chytrid infection in Flasks (chytrids [1]; 9 ppt, 11 d): 1 ± 1%
- % Chytrid infection in Flasks (chytrids [1]; 10 ppt, 9 d): 0 ± 0%
- % Chytrid infection in Flasks (chytrids [1]; 10 ppt, 11 d): 0 ± 0%
- % Chytrid infection in Flasks (chytrids [1]; 11 ppt, 9 d): 0 ± 0%
- % Chytrid infection in Flasks (chytrids [1]; 11 ppt, 11 d): 17 ± 24%
- chytrid infection (chytrids [1]; treatments between 7-10 ppt in flasks): 5-10%

Compound: hydrogen peroxide [H2O2]
- % Lysis ([2]; 0.0105 mL/L 3 times per day (discontinued day 5), day 6): 3.3 ± 2.4%
- % Lysis ([2]; 0.0105 mL/L 3 times per day (discontinued day 5), day 9): 6.7 ± 2.4%
- % Lysis ([2]; 0.0105 mL/L 3 times per day (discontinued day 5), day 11): 4.2 ± 3.5%
- % Lysis ([2]; 0.0105 mL/L 3 times per day, day 0): 4.2 ± 1.2%
- % Lysis ([2]; 0.0105 mL/L 3 times per day, day 3): 0.8 ± 1.2%
- % Lysis ([2]; 0.0105 mL/L 3 times per day, day 4): 3.3 ± 2.4%
- % Lysis ([2]; 0.0105 mL/L 3 times per day, day 5): 10.8 ± 1.2%
- % Lysis ([2]; 0.0140 mL/L 1 time per day (discontinued day 5), day 6): 7.5 ± 1.2%
- % Lysis ([2]; 0.0140 mL/L 1 time per day (discontinued day 5), day 9): 10.8 ± 1.2%
- % Lysis ([2]; 0.0140 mL/L 1 time per day (discontinued day 5), day 11): 7.5 ± 1.2%
- % Lysis ([2]; 0.0140 mL/L 1 time per day, day 0): 4.2 ± 1.2%
- % Lysis ([2]; 0.0140 mL/L 1 time per day, day 3): 5.0 ± 2.4%
- % Lysis ([2]; 0.0140 mL/L 1 time per day, day 4): 4.2 ± 1.2%
- % Lysis ([2]; 0.0140 mL/L 1 time per day, day 5): 10.0 ± 2.4%
- % Lysis ([2]; 0.0140 mL/L 2 times per day (discontinued day 5), day 6): 9.7 ± 5.9%
- % Lysis ([2]; 0.0140 mL/L 2 times per day (discontinued day 5), day 9): 5.0 ± 0.0%
- % Lysis ([2]; 0.0140 mL/L 2 times per day (discontinued day 5), day 11): 0.0 ± 0.0%
- % Lysis ([2]; 0.0140 mL/L 2 times per day, day 0): 4.2 ± 1.2%
- % Lysis ([2]; 0.0140 mL/L 2 times per day, day 3): 5.0 ± 4.7%
- % Lysis ([2]; 0.0140 mL/L 2 times per day, day 4): 3.3 ± 2.4%
- % Lysis ([2]; 0.0140 mL/L 2 times per day, day 5): 10.0 ± 2.4%
- % Lysis ([2]; 0.0140 mL/L 3 times per day (discontinued day 5), day 6): 55.0 ± 30.6%
- % Lysis ([2]; 0.0140 mL/L 3 times per day (discontinued day 5), day 9): 60.0 ± 28.3%
- % Lysis ([2]; 0.0140 mL/L 3 times per day (discontinued day 5), day 11): 56.7 ± 33.0%
- % Lysis ([2]; 0.0140 mL/L 3 times per day, day 0): 4.2 ± 1.2%
- % Lysis ([2]; 0.0140 mL/L 3 times per day, day 3): 2.5 ± 3.5%
- % Lysis ([2]; 0.0140 mL/L 3 times per day, day 4): 9.2 ± 1.2%
- % Lysis ([2]; 0.0140 mL/L 3 times per day, day 5): 42.5 ± 15.3%
- percent lysis ([2]; 0.014 mL/L dosed three times per day): 40%
- % Lysis ([2]; 0.0175 mL/L 1 time per day (discontinued day 5), day 6): 6.7 ± 2.4%
- % Lysis ([2]; 0.0175 mL/L 1 time per day (discontinued day 5), day 9): 6.7 ± 4.7%
- % Lysis ([2]; 0.0175 mL/L 1 time per day (discontinued day 5), day 11): 4.2 ± 3.5%
- % Lysis ([2]; 0.0175 mL/L 1 time per day, day 0): 4.2 ± 1.2%
- % Lysis ([2]; 0.0175 mL/L 1 time per day, day 3): 2.5 ± 1.2%
- % Lysis ([2]; 0.0175 mL/L 1 time per day, day 4): 4.2 ± 1.2%
- % Lysis ([2]; 0.0175 mL/L 1 time per day, day 5): 9.2 ± 1.2%
- percent lysis ([2]; all treated cultures except 0.014 mL/L three times per day): 10%
- reduction in % chytrid infection compared to the control (chytrids [3]; 4th experiment, starting 5 days after inoculation (144 h)): 50-90%
- Average Chytrid Infection (chytrids [3]; #2210 samples, absence of NaCl, 0.0075 mL/L two times per day, 0 h): 0.0 ± 0.0%
- Average Chytrid Infection (chytrids [3]; #2210 samples, absence of NaCl, 0.0075 mL/L two times per day, 24 h): 0.0 ± 0.0%
- Average Chytrid Infection (chytrids [3]; #2210 samples, absence of NaCl, 0.0075 mL/L two times per day, 48 h): 0.0 ± 0.0%
- Average Chytrid Infection (chytrids [3]; #2210 samples, absence of NaCl, 0.0075 mL/L two times per day, 96 h): 0.0 ± 0.0%
- Average Chytrid Infection (chytrids [3]; #2210 samples, absence of NaCl, 0.0075 mL/L two times per day, 120 h): 0.0 ± 0.0%
- Average Chytrid Infection (chytrids [3]; #2210 samples, absence of NaCl, 0.0075 mL/L two times per day, 144 h): 4.2 ± 5.9%
- Average Chytrid Infection (chytrids [3]; #2210 samples, absence of NaCl, 0.0075 mL/L two times per day, 168 h): 18.3 ± 25.9%
- Average Chytrid Infection (chytrids [3]; #2210 samples, absence of NaCl, 0.0075 mL/L two times per day, 192 h): 26.6 ± 37.1%
- Average Chytrid Infection (chytrids [3]; #2210 samples, absence of NaCl, 0.0075 mL/L two times per day, 264 h): 51.7 ± 7.1%
- Average Chytrid Infection (chytrids [3]; #2310 samples (4th experiment), 1 ppt NaCl, 0.0075 mL/L 3 times per day, 0 h): 0.0 ± 0.0%
- Average Chytrid Infection (chytrids [3]; #2310 samples (4th experiment), 1 ppt NaCl, 0.0075 mL/L 3 times per day, 24 h): 0.0 ± 0.0%
- Average Chytrid Infection (chytrids [3]; #2310 samples (4th experiment), 1 ppt NaCl, 0.0075 mL/L 3 times per day, 48 h): 0.0 ± 0.0%
- Average Chytrid Infection (chytrids [3]; #2310 samples (4th experiment), 1 ppt NaCl, 0.0075 mL/L 3 times per day, 120 h): 1.7 ± 1.7%
- Average Chytrid Infection (chytrids [3]; #2310 samples (4th experiment), 1 ppt NaCl, 0.0075 mL/L 3 times per day, 144 h): 18.3 ± 18.5%
- Average Chytrid Infection (chytrids [3]; #2310 samples (4th experiment), 1 ppt NaCl, 0.0075 mL/L 3 times per day, 168 h): 17.2 ± 14.4%
- Average Chytrid Infection (chytrids [3]; #2310 samples (4th experiment), 1 ppt NaCl, 0.0075 mL/L 3 times per day, 192 h): 32.2 ± 28.1%
- Average Chytrid Infection (chytrids [3]; #2310 samples (4th experiment), 1 ppt NaCl, 0.0075 mL/L 3 times per day, 216 h): 44.4 ± 46.8%
- Average Chytrid Infection (chytrids [3]; #2420 samples, 1 ppt NaCl, 0.0075 mL/L 2-3 times per day, 0 h): 0.0 ± 0.0%
- Average Chytrid Infection (chytrids [3]; #2420 samples, 1 ppt NaCl, 0.0075 mL/L 2-3 times per day, 24 h): 0.0 ± 0.0%
- Average Chytrid Infection (chytrids [3]; #2420 samples, 1 ppt NaCl, 0.0075 mL/L 2-3 times per day, 48 h): 0.0 ± 0.0%
- Average Chytrid Infection (chytrids [3]; #2420 samples, 1 ppt NaCl, 0.0075 mL/L 2-3 times per day, 72 h): 0.0 ± 0.0%
- Average Chytrid Infection (chytrids [3]; #2420 samples, 1 ppt NaCl, 0.0075 mL/L 2-3 times per day, 144 h): 0.0 ± 0.0%
- Average Chytrid Infection (chytrids [3]; #2420 samples, 1 ppt NaCl, 0.0075 mL/L 2-3 times per day, 168 h): 0.0 ± 0.0%
- Average Chytrid Infection (chytrids [3]; #2420 samples, 1 ppt NaCl, 0.0075 mL/L 2-3 times per day, 197 h): 0.0 ± 0.0%
- Average Chytrid Infection (chytrids [3]; #2420 samples, 1 ppt NaCl, 0.0075 mL/L 2-3 times per day, 217 h): 0.0 ± 0.0%
- Average Chytrid Infection (chytrids [3]; #2440 samples, 1 ppt salt, 0.0075 mL/L 2-3 times per day, 0 h): 0.0 ± 0.0%
- Average Chytrid Infection (chytrids [3]; #2440 samples, 1 ppt salt, 0.0075 mL/L 2-3 times per day, 24 h): 1.7 ± 2.9%
- Average Chytrid Infection (chytrids [3]; #2440 samples, 1 ppt salt, 0.0075 mL/L 2-3 times per day, 96 h): 25.0 ± 2.9%
- Average Chytrid Infection (chytrids [3]; #2440 samples, 1 ppt salt, 0.0075 mL/L 2-3 times per day, 120 h): 51.7 ± 5.0%
- Average Chytrid Infection (chytrids [3]; #2440 samples, 1 ppt salt, 0.0075 mL/L 2-3 times per day, 144 h): 43.9 ± 4.2%
